Assay results as given in patent publication US20230165980A1, “METHODS FOR RADIOLABELING PSMA BINDING LIGANDS AND THEIR KITS” (Novartis AG, priority 2020, published 2023).

Assay: Radiochemical purity: non-complexed ^68Ga species by ITLC
Assay type: physicochemical
Protocol: Radiochemical Purity: Non-Complexed ^68Ga Species by ITLC
Radical Scavenger to be used for the improvement of the radiochemical stability of ^68Ga-PSMA-11, tests were performed according to a varied approach in order to consider all the parameters that may affect the radiochemical purity of the product (activity, pH, volume, amount of Gentisic Acid).
Stability tests were performed on the freeze dried product containing the final formulation. […] Kits manufactured with the final formulation, indeed, were stored at different stability conditions (2-8° C.; 25° C. and 40° C.) and were tested at different time points for API-assay, Radiochemical Purity and Radiochemical Stability of the radiolabelled product. […]

Measured: [^68Ga] Not Complexed Species, iTLC

^68Ga-PSMA-11 [[^68Ga] Gallium PSMA-11]
0.51%: t0 h, final formulation kit at Release, E&Z 16.80 mCi, 5 mL, pH 3.75
0.00%: t0 h, Gentisic Acid 0 μg, IRE 17.19 mCi, 1 mL, pH 5.24 | t0 h, Gentisic Acid 200 μg, IRE 18.07 mCi, 1 mL, pH 5.25 | t0 h, Gentisic Acid 200 μg, ITG 35.92 mCi, 4 mL, pH 4.83 | t0 h, Gentisic Acid 400 μg, IRE 17.44 mCi, 1 mL, pH 5.13 | t0 h, Gentisic Acid 400 μg, IRE 17.79 mCi, 1 mL, pH 5.11 | t0 h, Gentisic Acid 400 μg, ITG 16.9 mCi, 4 mL, pH 4.85 | t0 h, Gentisic Acid 400 μg, ITG 31.97 mCi, 4 mL, pH 4.81 | t0 h, Gentisic Acid 1000 μg, E&Z 15.65 mCi, 5 mL, pH 3.75 | t0 h, Gentisic Acid 1000 μg, IRE 17.1 mCi, 1 mL, pH 5.08 | t0 h, Gentisic Acid 1000 μg, ITG 30.9 mCi, 4 mL, pH 4.87 | t0 h, final formulation kit at Release, E&Z 15.65 mCi, 5 mL, pH 3.75 | t0 h, final formulation kit at Release, IRE 32.27 mCi, 1 mL, pH 4.95 | t0 h, final formulation kit at Release, IRE 32.95 mCi, 1 mL, pH 5.07 | t0 h, final formulation kit at Release, ITG 29.74 mCi, 4 mL, pH 4.67 | t0 h, final formulation kit at Release, ITG 30.90 mCi, 4 mL, pH 4.67 | t0 h, kit stored 3 months at 2-8° C., IRE 25.76 mCi, 1 mL, pH 5.29 | t0 h, kit stored 3 months at 25° C., IRE 24.56 mCi, 1 mL, pH 5.16 | t0 h, kit stored 3 months at 40° C., IRE 24.86 mCi, 1 mL, pH 5.23 | t0 h, kit stored 6 months at 2-8° C., IRE 19.90 mCi, 1 mL, pH 5.13 | t0 h, kit stored 6 months at 25° C., IRE 18.88 mCi, 1 mL, pH 5.09 | t0 h, kit stored 6 months at 40° C., IRE 19.34 mCi, 1 mL, pH 5.15 | t4 h, Gentisic Acid 0 μg, IRE 17.19 mCi, 1 mL, pH 5.24 | t4 h, Gentisic Acid 200 μg, IRE 17.85 mCi, 1 mL, pH 5.22 | t4 h, Gentisic Acid 200 μg, IRE 18.07 mCi, 1 mL, pH 5.25 | t4 h, Gentisic Acid 200 μg, ITG 35.92 mCi, 4 mL, pH 4.83 | t4 h, Gentisic Acid 400 μg, IRE 17.44 mCi, 1 mL, pH 5.13 | t4 h, Gentisic Acid 400 μg, IRE 17.79 mCi, 1 mL, pH 5.11 | t4 h, Gentisic Acid 400 μg, ITG 16.9 mCi, 4 mL, pH 4.85 | t4 h, Gentisic Acid 400 μg, ITG 31.97 mCi, 4 mL, pH 4.81 | t4 h, Gentisic Acid 1000 μg, E&Z 15.65 mCi, 5 mL, pH 3.75 | t4 h, Gentisic Acid 1000 μg, IRE 17.1 mCi, 1 mL, pH 5.08 | t4 h, Gentisic Acid 1000 μg, ITG 30.9 mCi, 4 mL, pH 4.87 | t4 h, final formulation kit at Release, E&Z 15.65 mCi, 5 mL, pH 3.75 | t4 h, final formulation kit at Release, E&Z 16.80 mCi, 5 mL, pH 3.75 | t4 h, final formulation kit at Release, IRE 32.27 mCi, 1 mL, pH 4.95 | t4 h, final formulation kit at Release, IRE 32.95 mCi, 1 mL, pH 5.07 | t4 h, final formulation kit at Release, ITG 29.74 mCi, 4 mL, pH 4.67 | t4 h, final formulation kit at Release, ITG 30.90 mCi, 4 mL, pH 4.67 | t4 h, kit stored 3 months at 2-8° C., IRE 25.76 mCi, 1 mL, pH 5.29 | t4 h, kit stored 3 months at 25° C., IRE 24.56 mCi, 1 mL, pH 5.16 | t4 h, kit stored 3 months at 40° C., IRE 24.86 mCi, 1 mL, pH 5.23 | t4 h, kit stored 6 months at 2-8° C., IRE 19.90 mCi, 1 mL, pH 5.13 | t4 h, kit stored 6 months at 25° C., IRE 18.88 mCi, 1 mL, pH 5.09 | t4 h, kit stored 6 months at 40° C., IRE 19.34 mCi, 1 mL, pH 5.15
0.23%: t0 h, Gentisic Acid 200 μg, IRE 17.85 mCi, 1 mL, pH 5.22
